Test results as given in PMC9516332 (Frontiers in Oncology, 2022).

Experiments:
Experiment in all cases: Kinase panel profiling at 1 µmol/L (MSA or IMAP), percentage inhibition
Format in all cases: biochemical
[1] = target: panel of 255 wild-type kinases (Homo sapiens, UniProt Q9NQU5); conditions: PAK6; 1 µmol/L single concentration; read-out: %-inhibition, PAK6
[2] = target: panel of 255 wild-type kinases (Homo sapiens, UniProt Q7KZI7); conditions: MARK2; 1 µmol/L single concentration; read-out: %-inhibition, MARK2
[3] = target: T1, panel of 255 wild-type kinases (Homo sapiens, UniProt Q9BZL6); conditions: kinase PKD2; 1 µmol/L single concentration; read-out: %-inhibition at 1 µmol/L, PKD2
T1 sequence (Q9BZL6 1-878): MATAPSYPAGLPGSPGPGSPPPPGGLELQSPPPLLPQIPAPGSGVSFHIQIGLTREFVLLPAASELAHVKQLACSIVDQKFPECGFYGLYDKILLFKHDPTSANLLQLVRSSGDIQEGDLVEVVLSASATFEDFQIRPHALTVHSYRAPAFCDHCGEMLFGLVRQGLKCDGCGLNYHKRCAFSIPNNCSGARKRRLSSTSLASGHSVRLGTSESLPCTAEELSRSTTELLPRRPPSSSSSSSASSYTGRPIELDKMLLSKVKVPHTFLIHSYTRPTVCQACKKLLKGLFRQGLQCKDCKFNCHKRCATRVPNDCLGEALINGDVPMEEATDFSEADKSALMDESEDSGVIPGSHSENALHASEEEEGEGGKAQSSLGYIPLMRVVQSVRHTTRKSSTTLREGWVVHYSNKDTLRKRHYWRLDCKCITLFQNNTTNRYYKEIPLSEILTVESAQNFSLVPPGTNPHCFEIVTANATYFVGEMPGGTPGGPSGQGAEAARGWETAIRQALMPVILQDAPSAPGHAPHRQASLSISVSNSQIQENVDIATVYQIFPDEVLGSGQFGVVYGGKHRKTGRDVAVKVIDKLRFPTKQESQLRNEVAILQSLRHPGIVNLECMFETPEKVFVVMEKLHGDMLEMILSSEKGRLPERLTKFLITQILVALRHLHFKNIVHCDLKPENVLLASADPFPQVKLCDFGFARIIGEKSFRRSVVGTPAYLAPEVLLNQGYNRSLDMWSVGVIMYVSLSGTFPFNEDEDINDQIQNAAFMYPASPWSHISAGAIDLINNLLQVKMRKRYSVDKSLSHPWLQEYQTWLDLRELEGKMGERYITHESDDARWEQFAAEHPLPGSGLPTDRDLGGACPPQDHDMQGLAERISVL

[4] = target: panel of 255 wild-type kinases (Homo sapiens, UniProt P05771); conditions: kinase PKCβ1; 1 µmol/L single concentration; read-out: %-inhibition at 1 µmol/L, PKCβ1
[5] = target: panel of 255 wild-type kinases (Homo sapiens, UniProt Q86V86); conditions: kinase PIM3; 1 µmol/L single concentration; read-out: %-inhibition at 1 µmol/L, PIM3
[6] = target: panel of 255 wild-type kinases (Homo sapiens, UniProt Q00535); conditions: CDK5/p25 kinase assay; 1 µmol/L single concentration; read-out: %-inhibition CDK5/p25
[7] = target: panel of 255 wild-type kinases (Homo sapiens, UniProt P28482); conditions: kinase Erk2; 1 µmol/L single concentration; read-out: %-inhibition at 1 µmol/L, Erk2
[8] = target: panel of 255 wild-type kinases (Homo sapiens, UniProt Q16644); conditions: MAPKAPK3; 1 µmol/L single concentration; read-out: %-inhibition, MAPKAPK3
[9] = target: panel of 255 wild-type kinases (Homo sapiens, UniProt P19784); conditions: kinase CK2α2/β; 1 µmol/L single concentration; read-out: %-inhibition at 1 µmol/L, CK2α2/β
[10] = target: panel of 255 wild-type kinases (Homo sapiens, UniProt Q15349); conditions: kinase RSK3; 1 µmol/L single concentration; read-out: %-inhibition at 1 µmol/L, RSK3
[11] = target: T2, panel of 255 wild-type kinases (Homo sapiens, UniProt P54762); conditions: kinase EPHB1; 1 µmol/L single concentration; read-out: %-inhibition at 1 µmol/L, EPHB1
T2 sequence (P54762 18-984): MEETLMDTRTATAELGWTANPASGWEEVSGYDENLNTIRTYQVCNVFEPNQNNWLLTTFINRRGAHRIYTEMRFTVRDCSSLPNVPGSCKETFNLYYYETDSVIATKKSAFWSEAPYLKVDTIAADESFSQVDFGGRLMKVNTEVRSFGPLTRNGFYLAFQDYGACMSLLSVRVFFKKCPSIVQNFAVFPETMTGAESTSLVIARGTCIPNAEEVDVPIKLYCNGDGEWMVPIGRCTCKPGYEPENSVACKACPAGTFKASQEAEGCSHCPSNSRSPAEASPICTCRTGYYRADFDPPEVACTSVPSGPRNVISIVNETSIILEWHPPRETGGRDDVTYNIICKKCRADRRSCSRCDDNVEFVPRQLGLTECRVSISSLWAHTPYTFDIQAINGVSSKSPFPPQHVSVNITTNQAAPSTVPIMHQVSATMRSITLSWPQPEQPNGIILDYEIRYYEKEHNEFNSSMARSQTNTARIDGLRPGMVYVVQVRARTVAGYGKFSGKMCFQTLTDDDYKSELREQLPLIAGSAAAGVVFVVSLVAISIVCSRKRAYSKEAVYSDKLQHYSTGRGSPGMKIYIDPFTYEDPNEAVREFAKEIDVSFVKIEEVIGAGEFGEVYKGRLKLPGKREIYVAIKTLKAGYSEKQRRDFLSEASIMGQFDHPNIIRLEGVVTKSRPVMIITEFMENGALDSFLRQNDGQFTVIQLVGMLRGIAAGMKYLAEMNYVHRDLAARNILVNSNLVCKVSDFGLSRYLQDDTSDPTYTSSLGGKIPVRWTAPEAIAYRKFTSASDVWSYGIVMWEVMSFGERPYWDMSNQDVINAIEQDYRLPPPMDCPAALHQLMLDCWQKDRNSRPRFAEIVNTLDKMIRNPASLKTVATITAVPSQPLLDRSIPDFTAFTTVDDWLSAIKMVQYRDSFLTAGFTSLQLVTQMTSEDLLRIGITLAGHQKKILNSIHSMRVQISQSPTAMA

[12] = target: panel of 255 wild-type kinases (Homo sapiens, UniProt Q9H0K1); conditions: kinase QIK; 1 µmol/L single concentration; read-out: %-inhibition at 1 µmol/L, QIK

Compound `C[C@H]1Oc2cc(cnc2N)-c2c(nn(C)c2C#N)CN(C)C(=O)c2ccc(F)cc21` [lorlatinib] has an inhibition at 1 µM [1] of 14%, an inhibition at 1 µM [2] of 11% and an inhibition at 1 µM [3] of -11%. For the same compound, the inhibition at 1 µM [4] was 7%, the inhibition at 1 µM [5] was -6% and the inhibition at 1 µM [6] was -9%. It also gave an inhibition at 1 µM [7] of 0.392%, an inhibition at 1 µM [8] of -10% and an inhibition at 1 µM [9] of -2.41%. For the same compound, the inhibition at 1 µM [10] was 2.53%, the inhibition at 1 µM [11] was 68% and the inhibition at 1 µM [12] was 2.53%.

`CCN1C(=O)N(c2c(F)c(OC)cc(OC)c2F)Cc2cnc3[nH]c(CN4CCOCC4)cc3c21` [pemigatinib] showed an inhibition at 1 µM [1] of 12%, an inhibition at 1 µM [2] of 50% and an inhibition at 1 µM [3] of 4.44%. It also gave an inhibition at 1 µM [4] of 0.544%, an inhibition at 1 µM [5] of -8% and an inhibition at 1 µM [6] of -12%. For the same compound, the inhibition at 1 µM [7] was -1.6%, the inhibition at 1 µM [8] was -12% and the inhibition at 1 µM [9] was -5%. It also gave an inhibition at 1 µM [10] of -7.51%, an inhibition at 1 µM [11] of -3% and an inhibition at 1 µM [12] of 6.5%.

For `FC(F)(F)c1ccc(CNc2ccc(Cc3c[nH]c4ncc(Cl)cc34)cn2)cn1` [pexidartinib], the inhibition at 1 µM [1] was 0.273%, the inhibition at 1 µM [2] was 5.3% and the inhibition at 1 µM [3] was -5%. The inhibition at 1 µM [4] was 4.22%, the inhibition at 1 µM [5] was 4.68% and the inhibition at 1 µM [6] was -21%. It also gave an inhibition at 1 µM [7] of -3.53%, an inhibition at 1 µM [8] of -15% and an inhibition at 1 µM [9] of 0.601%. The inhibition at 1 µM [10] was 42%, the inhibition at 1 µM [11] was 11% and the inhibition at 1 µM [12] was 11%.

Compound `CO[C@]1(C(=O)N[C@@H](C)c2ccc(-n3cc(F)cn3)nc2)CC[C@H](c2nc(C)cc(Nc3cc(C)[nH]n3)n2)CC1` [pralsetinib] has an inhibition at 1 µM [1] of 42%, an inhibition at 1 µM [2] of -15% and an inhibition at 1 µM [3] of -9%. It also gave an inhibition at 1 µM [4] of 2.58%, an inhibition at 1 µM [5] of -0.165% and an inhibition at 1 µM [6] of 43%. For the same compound, the inhibition at 1 µM [7] was 0.23%, the inhibition at 1 µM [8] was -22% and the inhibition at 1 µM [9] was 4.29%. The inhibition at 1 µM [10] was 64%, the inhibition at 1 µM [11] was 58% and the inhibition at 1 µM [12] was -2.55%.

`CCn1c(=O)c(-c2cc(NC(=O)Nc3ccccc3)c(F)cc2Br)cc2cnc(NC)cc21` [ripretinib] showed an inhibition at 1 µM [1] of 1.15%, an inhibition at 1 µM [2] of -2.22% and an inhibition at 1 µM [3] of 13%. The inhibition at 1 µM [4] was 1.06%, the inhibition at 1 µM [5] was 1.11% and the inhibition at 1 µM [6] was -19%. For the same compound, the inhibition at 1 µM [7] was -2.43%, the inhibition at 1 µM [8] was -16% and the inhibition at 1 µM [9] was -0.613%. For the same compound, the inhibition at 1 µM [10] was 12%, the inhibition at 1 µM [11] was 92% and the inhibition at 1 µM [12] was 7%.

Compound `COc1ccc(CN2C3CC2CN(c2ccc(-c4cc(OCC(C)(C)O)cn5ncc(C#N)c45)cn2)C3)cn1` [selpercatinib] has an inhibition at 1 µM [1] of 14%, an inhibition at 1 µM [2] of 26% and an inhibition at 1 µM [3] of 1.11%. For the same compound, the inhibition at 1 µM [4] was -0.445%, the inhibition at 1 µM [5] was -2.65% and the inhibition at 1 µM [6] was -8.52%. For the same compound, the inhibition at 1 µM [7] was -4%, the inhibition at 1 µM [8] was -12% and the inhibition at 1 µM [9] was 0.638%. The inhibition at 1 µM [10] was 56%, the inhibition at 1 µM [11] was 98% and the inhibition at 1 µM [12] was -2.53%.

`Cn1cnc2c(F)c(Nc3ccc(Br)cc3Cl)c(C(=O)NOCCO)cc21` [selumetinib] gave an inhibition at 1 µM [1] of 12%, an inhibition at 1 µM [2] of -14% and an inhibition at 1 µM [3] of -15%. It also gave an inhibition at 1 µM [4] of 2.44%, an inhibition at 1 µM [5] of -0.0221% and an inhibition at 1 µM [6] of -11%. For the same compound, the inhibition at 1 µM [7] was -4.4%, the inhibition at 1 µM [8] was -14% and the inhibition at 1 µM [9] was -2%. For the same compound, the inhibition at 1 µM [10] was 4.41%, the inhibition at 1 µM [11] was -0.927% and the inhibition at 1 µM [12] was -4%.

Compound `Cc1cc(Nc2ncnc3ccc(NC4=NC(C)(C)CO4)cc23)ccc1Oc1ccn2ncnc2c1` [tucatinib] has an inhibition at 1 µM [1] of 6.34%, an inhibition at 1 µM [2] of -12% and an inhibition at 1 µM [3] of 44%. The inhibition at 1 µM [4] was 0.869%, the inhibition at 1 µM [5] was -1.3% and the inhibition at 1 µM [6] was -5%. For the same compound, the inhibition at 1 µM [7] was -0.547%, the inhibition at 1 µM [8] was -3% and the inhibition at 1 µM [9] was -2.25%. For the same compound, the inhibition at 1 µM [10] was 2.84%, the inhibition at 1 µM [11] was 0.25% and the inhibition at 1 µM [12] was -2.58%.

`C=CC(=O)N1CCC([C@@H]2CCNc3c(C(N)=O)c(-c4ccc(Oc5ccccc5)cc4)nn32)CC1` [zanubrutinib] was tested, and the inhibition at 1 µM [1] was 11%, the inhibition at 1 µM [2] was -21% and the inhibition at 1 µM [3] was 2.31%. The inhibition at 1 µM [4] was 0.363%, the inhibition at 1 µM [5] was -8% and the inhibition at 1 µM [6] was -17%. It also gave an inhibition at 1 µM [7] of -5%, an inhibition at 1 µM [8] of -12% and an inhibition at 1 µM [9] of -4%. It also gave an inhibition at 1 µM [10] of -7%, an inhibition at 1 µM [11] of -2% and an inhibition at 1 µM [12] of -4%.
